Laboratory results published in ChEMBL document CHEMBL1201862, “PubChem BioAssay data set” (2004).
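Results reflect a 48-hour exposure of cells in 96-well plates to compound at five concentrations. GI50 = concentration required for 50% inhibition of growth.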 Activity calls are given as the source filed them. No stated cut-off is given here; in the data, active = GI50 up to about 1.1 µM and inactive = higher.

Experiments:
Assay in all cases: NCI tumour cell line growth inhibition, 48 h
Malme-3M = system: Malme-3M
M19-MEL = system: M19-MEL
SN12C = system: SN12C
HOP-62 = system: HOP-62
KM-20L2 = system: KM-20L2
DLD-1 = system: DLD-1
EKVX = system: EKVX
RXF 393 = system: RXF 393
SK-MEL-28 = system: SK-MEL-28
OVCAR-8 = system: OVCAR-8
SK-MEL-5 = system: SK-MEL-5
OVCAR-3 = system: OVCAR-3
M14 = system: M14
HL-60 = system: HL-60
HT-29 = system: HT-29
NCI-H460 = system: NCI-H460
DMS-273 = system: DMS-273
LXFL 529 = system: LXFL 529
ACHN = system: ACHN
HOP-92 = system: HOP-92
SK-OV-3 = system: SK-OV-3
SF-295 = system: SF-295
SF-268 = system: SF-268
UACC-257 = system: UACC-257
DMS-114 = system: DMS-114
UACC-62 = system: UACC-62
HCT-116 = system: HCT-116
SR = system: SR
LOX IMVI = system: LOX IMVI
HCC 2998 = system: HCC 2998
NCI-H226 = system: NCI-H226
UO-31 = system: UO-31
SW-620 = system: SW-620
COLO 205 = system: COLO 205
TK-10 = system: TK-10
SK-MEL-2 = system: SK-MEL-2
U-251 = system: U-251
OVCAR-5 = system: OVCAR-5
IGROV-1 = system: IGROV-1
NCI-H23 = system: NCI-H23
RPMI-8226 = system: RPMI-8226
KM12 = system: KM12
SNB-75 = system: SNB-75
HCT-15 = system: HCT-15
XF498 = system: XF498
CCRF-CEM = system: CCRF-CEM
786-0 = system: 786-0
SNB-78 = system: SNB-78
SNB-19 = system: SNB-19
MOLT-4 = system: MOLT-4
K562 = system: K562
SF-539 = system: SF-539
A549 = system: A549
A498 = system: A498

For `CCOC(=O)C12CCC(=O)C=C1[C@@H](C)C(=O)CC2` (stereo not given in full), the GI50 (Malme-3M) was > 100 µM (inactive), the GI50 (M19-MEL) was > 100 µM (inactive) and the GI50 (SN12C) was > 100 µM (inactive). For the same compound, the GI50 (HOP-62) was > 100 µM (inactive), the GI50 (KM-20L2) was > 100 µM (inactive) and the GI50 (DLD-1) was > 100 µM (inactive). For the same compound, the GI50 (EKVX) was > 100 µM (inactive), the GI50 (RXF 393) was > 100 µM (inactive) and the GI50 (SK-MEL-28) was > 100 µM (inactive). The GI50 (OVCAR-8) was > 100 µM (inactive), the GI50 (SK-MEL-5) was > 100 µM (inactive) and the GI50 (OVCAR-3) was > 100 µM (inactive). The GI50 (M14) was > 100 µM (inactive), the GI50 (HL-60) was > 100 µM (inactive) and the GI50 (HT-29) was > 100 µM (inactive). The GI50 (NCI-H460) was > 100 µM (inactive), the GI50 (DMS-273) was > 100 µM (inactive) and the GI50 (LXFL 529) was > 100 µM (inactive). The GI50 (ACHN) was > 100 µM (inactive), the GI50 (HOP-92) was 93.3 µM (inactive) and the GI50 (SK-OV-3) was > 100 µM (inactive). For the same compound, the GI50 (SF-295) was > 100 µM (inactive), the GI50 (SF-268) was > 100 µM (inactive) and the GI50 (UACC-257) was > 100 µM (inactive). The GI50 (DMS-114) was > 100 µM (inactive), the GI50 (UACC-62) was > 100 µM (inactive) and the GI50 (HCT-116) was > 100 µM (inactive). For the same compound, the GI50 (SR) was > 100 µM (inactive), the GI50 (LOX IMVI) was > 100 µM (inactive) and the GI50 (HCC 2998) was > 100 µM (inactive). For the same compound, the GI50 (NCI-H226) was > 100 µM (inactive), the GI50 (UO-31) was > 100 µM (inactive) and the GI50 (SW-620) was > 100 µM (inactive). For the same compound, the GI50 (COLO 205) was > 100 µM (inactive), the GI50 (TK-10) was > 100 µM (inactive) and the GI50 (SK-MEL-2) was > 100 µM (inactive). The GI50 (U-251) was > 100 µM (inactive), the GI50 (OVCAR-5) was > 100 µM (inactive) and the GI50 (IGROV-1) was > 100 µM (inactive). The GI50 (NCI-H23) was > 100 µM (inactive), the GI50 (RPMI-8226) was > 100 µM (inactive) and the GI50 (KM12) was > 100 µM (inactive). For the same compound, the GI50 (SNB-75) was > 100 µM (inactive), the GI50 (HCT-15) was greater than 100 µM and the GI50 (XF498) was > 100 µM (inactive).

`O=C(O)CCSC(=O)Nc1cccc(F)c1` was tested, and the GI50 (CCRF-CEM) was > 100 µM (inactive), the GI50 (SN12C) was > 100 µM (inactive) and the GI50 (HOP-62) was 14.3 µM (inactive). For the same compound, the GI50 (KM-20L2) was > 100 µM (inactive), the GI50 (DLD-1) was > 10 µM (inactive) and the GI50 (EKVX) was 3.55 µM (inactive). For the same compound, the GI50 (SK-MEL-28) was > 100 µM (inactive), the GI50 (OVCAR-8) was > 100 µM (inactive) and the GI50 (OVCAR-3) was 40.6 µM (inactive). The GI50 (786-0) was > 100 µM (inactive), the GI50 (SNB-78) was > 100 µM (inactive) and the GI50 (SNB-19) was > 100 µM (inactive). For the same compound, the GI50 (M14) was 18.3 µM (inactive), the GI50 (HL-60) was 23.3 µM (inactive) and the GI50 (HT-29) was > 100 µM (inactive). The GI50 (NCI-H460) was > 100 µM (inactive), the GI50 (DMS-273) was > 100 µM (inactive) and the GI50 (LXFL 529) was > 100 µM (inactive). The GI50 (MOLT-4) was > 100 µM (inactive), the GI50 (ACHN) was > 100 µM (inactive) and the GI50 (SF-295) was > 100 µM (inactive). For the same compound, the GI50 (SF-268) was 24.3 µM (inactive), the GI50 (UACC-257) was > 100 µM (inactive) and the GI50 (DMS-114) was 66.5 µM (inactive). The GI50 (UACC-62) was 0.228 µM (active), the GI50 (SR) was > 100 µM (inactive) and the GI50 (K562) was > 100 µM (inactive). The GI50 (LOX IMVI) was > 100 µM (inactive), the GI50 (SF-539) was > 100 µM (inactive) and the GI50 (HCC 2998) was > 100 µM (inactive). For the same compound, the GI50 (NCI-H226) was > 100 µM (inactive), the GI50 (UO-31) was > 100 µM (inactive) and the GI50 (SW-620) was > 100 µM (inactive). The GI50 (COLO 205) was > 100 µM (inactive), the GI50 (TK-10) was > 100 µM (inactive) and the GI50 (SK-MEL-2) was > 100 µM (inactive). For the same compound, the GI50 (A549) was > 100 µM (inactive), the GI50 (U-251) was > 100 µM (inactive) and the GI50 (OVCAR-5) was > 100 µM (inactive). For the same compound, the GI50 (IGROV-1) was > 10 µM (inactive), the GI50 (NCI-H23) was > 100 µM (inactive) and the GI50 (RPMI-8226) was > 100 µM (inactive). For the same compound, the GI50 (KM12) was > 100 µM (inactive), the GI50 (A498) was > 100 µM (inactive) and the GI50 (HCT-15) was greater than 100 µM.
